In PubChem BioAssay (NCI):
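These data come from cells grown in 96-well plates and exposed to compound for 48 hours at five concentrations. The concentration for 50% growth inhibition is given as GI50. Definition used: TGI = concentration required for complete inhibition of growth.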

Key:
Experiment in all cases: NCI tumour cell line growth inhibition, 48 h
MCF7 breast = tested on: MCF7 breast
HOP-92 NSCLC = tested on: HOP-92 NSCLC
A549 NSCLC = tested on: A549 NSCLC
SK-MEL-5 melanoma = tested on: SK-MEL-5 melanoma
HCT-15 colon = tested on: HCT-15 colon
786-0 renal = tested on: 786-0 renal
UO-31 renal = tested on: UO-31 renal
HL-60(TB) leukemia = tested on: HL-60(TB) leukemia
NCI-H226 lung = tested on: NCI-H226 lung
A498 renal = tested on: A498 renal
PC-3 prostate = tested on: PC-3 prostate
OVCAR-3 ovarian = tested on: OVCAR-3 ovarian
EKVX NSCLC = tested on: EKVX NSCLC
CCRF-CEM leukemia = tested on: CCRF-CEM leukemia
HCC-2998 colon = tested on: HCC-2998 colon
UACC-62 melanoma = tested on: UACC-62 melanoma
SR leukemia = tested on: SR leukemia
RXF 393 renal = tested on: RXF 393 renal
TK-10 renal = tested on: TK-10 renal
LOX IMVI melanoma = tested on: LOX IMVI melanoma
HS 578T breast = tested on: HS 578T breast
SNB-75 CNS = tested on: SNB-75 CNS
HT29 colon = tested on: HT29 colon
SW-620 colon = tested on: SW-620 colon
HCT-116 colon = tested on: HCT-116 colon
SF-295 CNS = tested on: SF-295 CNS
COLO 205 colon = tested on: COLO 205 colon
ACHN renal = tested on: ACHN renal

Compound: O=C(CCCCN1CCOCC1)Nc1ccc(Cn2nnc3c2C(=O)c2nnn(Cc4ccc(NC(=O)CCCCN5CCOCC5)cc4)c2C3=O)cc1
- TGI (MCF7 breast): 195 nM
- GI50 (HOP-92 NSCLC): 808 nM
- TGI (HOP-92 NSCLC): 1760 nM
- GI50 (A549 NSCLC): 397 nM
- TGI (A549 NSCLC): 1110 nM
- GI50 (SK-MEL-5 melanoma): 71.7 nM
- TGI (SK-MEL-5 melanoma): 141 nM
- GI50 (HCT-15 colon): 629 nM
- TGI (HCT-15 colon): 1550 nM
- GI50 (786-0 renal): 1070 nM
- TGI (786-0 renal): 3380 nM
- GI50 (UO-31 renal): 1240 nM
- TGI (UO-31 renal): 17500 nM
- GI50 (HL-60(TB) leukemia): 157 nM
- TGI (HL-60(TB) leukemia): 687 nM
- GI50 (NCI-H226 lung): 723 nM
- TGI (NCI-H226 lung): 1840 nM
- GI50 (A498 renal): 906 nM
- TGI (A498 renal): 1820 nM
- GI50 (PC-3 prostate): 404 nM
- TGI (PC-3 prostate): 2570 nM
- GI50 (OVCAR-3 ovarian): 167 nM
- TGI (OVCAR-3 ovarian): 559 nM
- GI50 (EKVX NSCLC): 776 nM
- TGI (EKVX NSCLC): 1520 nM
- GI50 (CCRF-CEM leukemia): 271 nM
- TGI (CCRF-CEM leukemia): 2700 nM
- GI50 (HCC-2998 colon): 181 nM
- TGI (HCC-2998 colon): 594 nM
- GI50 (UACC-62 melanoma): 116 nM
- TGI (UACC-62 melanoma): 341 nM
- GI50 (SR leukemia): 406 nM
- TGI (SR leukemia): 2650 nM
- GI50 (RXF 393 renal): 717 nM
- TGI (RXF 393 renal): 1810 nM
- GI50 (TK-10 renal): 2020 nM
- TGI (TK-10 renal): 39600 nM
- GI50 (LOX IMVI melanoma): 115 nM
- TGI (LOX IMVI melanoma): 305 nM
- GI50 (HS 578T breast): 1090 nM
- TGI (HS 578T breast): 13800 nM
- GI50 (SNB-75 CNS): 234 nM
- TGI (SNB-75 CNS): 806 nM
- GI50 (HT29 colon): 178 nM
- TGI (HT29 colon): 837 nM
- GI50 (SW-620 colon): 201 nM
- TGI (SW-620 colon): 800 nM
- GI50 (HCT-116 colon): 160 nM
- TGI (HCT-116 colon): 584 nM
- GI50 (SF-295 CNS): 381 nM
- TGI (SF-295 CNS): 1050 nM
- GI50 (COLO 205 colon): 95.9 nM
- TGI (COLO 205 colon): 186 nM
- GI50 (ACHN renal): 758 nM
- TGI (ACHN renal): 1810 nM
